Assays:
[1] = system: NF-κB and Stat-1; assay: p65 nuclear translocation and DNA binding, Stat1 phosphorylation; format: cell-based, murine; details: RAW264.7
From the text: The expression of iNOS and the analyzed pro-inflammatory cytokines is dependent on the activity of NF-κB and Stat-1. It has been reported that electrophilic lipids can repress the activation of these transcriptional factors either by direct adduction to the DNA binding domain of the NF-K B subunit p65 and to the inhibitor IκBα or via indirect mechanisms.

[2] = system: inducible nitric oxide synthase (iNOS); assay: iNOS induction and nitrite accumulation in activated RAW264.7 cells; format: cell-based, murine; details: RAW264.7 activated with Kdo2 and IFNγ
Experimental: FIG. 11 illustrates modulation of anti-oxidant and inflammatory responses by 17-oxoDHA and 17-oxoDPA. RAW264.7 cells were treated with increasing concentration of 17-oxoDHA and 17-oxoDPA. (a) Cells were harvested 1 h after treatment and Nrf2 levels were quantified in nuclear extracts, (b) Cells were harvested 18 h after treatment and HO—I and Nqol (upper band) levels were measured by western blot, (c, d) RAW264.7 cells were treated with increasing concentration of 17-oxoDHA and 17-oxoDP A for 6 h and Kdo2+IFNγ were added. Samples were collected at 12 h. IL-6, MCP-I and IL-IO levels were measured in the cell media by Quantikine ELISA Kit (R&D Systems) and normalized by the total protein content (c); Nitrite levels were measured in the cell media and normalized by the total protein content and iNOS and Cox-2 levels were measured in total cell lysates (d); (e) PPARγ beta-lactamase reporter assays were performed for Rosiglitazone, 17-OxoDPA, 17-OxoDHA, 15d-PGJ2, 17-hydroxyDHA, DPA, and DHA with concentrations ranging from 0.5-10,000 nM.
For activation experiments RAW 264.7 cells were seeded, incubated overnight, and treated at approximately 80% confluence with the indicated compounds 47. Non-activated controls were treated with vehicle alone. During activation, cells were maintained in an activation medium (SMEM) of Minimum Essential Medium Eagle (Cellgro, 17-305)+2% FBS supplemented with L-glutamine (584 mg/L), Na-pyruvate (110 mg/L) and Hepes (3.57 g/L, pH 7.4). For inhibition studies, inhibitors were added to the medium at the time of activation and MTT assays were used to confirm cell viability. Cells were harvested 20 h post activation (unless otherwise indicated) in 50 mM phosphate buffer (pH 7.4) and snap frozen in liquid N2. […]
Protein concentrations of samples were measured by BCA assay (Pierce). […] Actin (detected by Sigma A2066) was used as loading control. […]
(§1) Total nitrite and nitrate concentration was measured in cell culture media by Griess reaction using the Nitrate/Nitrite Colorimetric Assay Kit (Cayman Chemical).

[3] = system: RAW264.7 cells; assay: EFAD formation in activated RAW264.7 cells treated with inhibitors; format: cell-based, murine
[4] = target: GAPDH (Oryctolagus cuniculus, UniProt P46406); assay: In vitro alkylation of GAPDH, mass spectrometric analysis; format: biochemical, rabbit
GAPDH, sequence (P46406 whole entry): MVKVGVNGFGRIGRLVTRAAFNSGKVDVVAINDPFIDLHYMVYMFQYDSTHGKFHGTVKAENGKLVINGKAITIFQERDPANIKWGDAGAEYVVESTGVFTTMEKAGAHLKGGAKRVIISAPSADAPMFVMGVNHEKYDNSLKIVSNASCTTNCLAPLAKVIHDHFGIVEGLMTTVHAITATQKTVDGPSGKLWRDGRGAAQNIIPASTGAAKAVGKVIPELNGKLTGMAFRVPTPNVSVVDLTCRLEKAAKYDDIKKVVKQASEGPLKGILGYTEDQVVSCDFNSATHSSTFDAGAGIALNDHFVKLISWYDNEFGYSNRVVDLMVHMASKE
From the text: FIG. 21 illustrates the mass spectrometric analysis of an in vitro reaction of GAPDHvith EFAD-2. Four residues were detected and confirmed-as being targets for EfAD-2 in treated rabbit GAPDH. The peptides were alkylated as Cys244 (a), His163 (b), Cys149 (c) and His328 (d). Upper panels show EFAD-2 modified peptides and lower panels show spectra from corresponding native peptide.
To more specifically test the binding of EFADs to nucleophilic residues in proteins, we tested whether GAPDH was alkylated by EFADs. This enzyme is a well-characterized target for electrophiles and becomes easily inactivated by nitrosylation, oxidation or nucleophilic addition.

[5] = system: inducible nitric oxide synthase (iNOS); assay: iNOS induction and nitrite accumulation in bone marrow-derived macrophages; format: cell-based, C57BL/6 mice; details: BMDMs activated with Kdo2 and IFNγ
Experimental: FIG. 24 illustrates that 17-oxoDHA and 7-oxoDPA modulate the inflammatory response. in bone marrow-derived macrophages. Cells were treated with increasing concentration of 17-oxoDHA and 17oxoDPA for 6 h and Kdo2 Lipid A (0.5 μg/ml) and IFNγ were added. Samples were collected at 12 h. (2) Nitrite levels were measured in the cell media and normalized to the total protein content: iNOS and COX-2 levels were measured in total cell lystaes. (b) IL-6, MCP-I, and IL-10 levels were measured in cell media and normalized to the total protein content.
(§2) Bone marrow derived macrophages were isolated from C57BL/6 mice according to the protocol developed by Davies. See Davies, J. Q. & Gordon, S. Isolation and culture of murine macrophages. Methods Mol Biol 290, 91-103 (2005).
Protein concentrations of samples were measured by BCA assay (Pierce). The following primary antibodies were used: Nrf2 (Santa Cruz, sc-722), HO—I (Assay Design, SPA-896), Nqol (Abeam, ab34173), Cox-2 (Santa Cruz, sc-1745), iNOS (BD Transduction Lab, 610332), Lamin Bl (Abeam, ab16048). Actin (detected by Sigma A2066) was used as loading control. Secondary antibodies were purchased from Santa Cruz Biotechnology.
as §1

[6] = target: T1, Purified ovine COX-2 (Ovis aries, UniProt P79208); assay: COX-2 reaction with DPA ± ASA, OH-DPA formation; format: biochemical; details: ovine COX-2 + DPA 10 μM ± 2 mM ASA
T1 construct: Ovine placental COX-2 (Cayman 60120) was also from Cayman Chemicals; purchased Cayman Chemicals 60120; host or cells: ovine placenta
T1 sequence (P79208 17-603): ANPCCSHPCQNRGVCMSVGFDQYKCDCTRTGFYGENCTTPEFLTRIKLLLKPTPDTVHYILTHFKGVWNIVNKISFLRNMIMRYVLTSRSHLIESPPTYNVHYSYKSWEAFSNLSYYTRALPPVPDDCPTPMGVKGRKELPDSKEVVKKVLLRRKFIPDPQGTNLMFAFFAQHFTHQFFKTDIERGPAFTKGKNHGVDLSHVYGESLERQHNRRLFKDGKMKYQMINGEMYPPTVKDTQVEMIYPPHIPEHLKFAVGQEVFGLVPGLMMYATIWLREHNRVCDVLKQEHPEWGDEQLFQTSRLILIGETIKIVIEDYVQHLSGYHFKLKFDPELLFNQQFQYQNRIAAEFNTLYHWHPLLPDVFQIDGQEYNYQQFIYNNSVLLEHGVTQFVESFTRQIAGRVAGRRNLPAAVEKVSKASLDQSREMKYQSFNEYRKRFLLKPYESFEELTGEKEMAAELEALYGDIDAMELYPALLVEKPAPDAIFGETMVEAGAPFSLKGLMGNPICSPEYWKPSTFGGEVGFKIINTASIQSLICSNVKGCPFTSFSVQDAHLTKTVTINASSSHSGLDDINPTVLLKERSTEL
Experimental: The results of the COX-2 inhibition study implicate a the involvement of COX-2 in EFAD formation and motivated the development of an in vitro model of enzymatic EFAD synthesis. Purified ovine COX-2 was used to generate the EFAD-2 precursor (OH-DPA), (FIG. 7c-e), while the EFAD-I precursor, hydroxy-DHA (OH-DHA), was produced from DHA by COX-2 (FIGS. 19a and 19b).
Ovine placental COX-2 (20 U/ml) was preincubated in Tris/heme/phenol (THP) buffer ±2 mM ASA at 37° C. THP buffer, freshly prepared before each reaction, consisted of Tris*C1 (100 mM, pH 8.1), hematin (1 μM), and phenol (1 μM). The reaction was initiated by addition of the indicated fatty acids at a concentration of 10 μM. Reactions were terminated at the indicated time points by addition of ice-cold acetonitrile (9× reaction volume) and COX-2 protein was removed by centrifugation. Product formation was monitored by RP-HPLC-MS/MS in multiple reaction monitoring (MRM) mode following the loss Of CO2 (m/z 345/301 and m/z 343/299 for OH-DPA and OH-DHA, respectively).

[7] = system: bone marrow-derived macrophage (BMDM) cells; assay: EFAD formation in activated bone marrow-derived macrophages; format: cell-based, C57BL/6 murine; details: BMDM activated with Kdo2 and IFNγ
Experimental: FIG. 8 illustrates formation of EFAD in activated primary murine macrophages. Bone marrow derived macrophages were activated with Kdo2 (0.5 μg/ml) and IFNγ (200 U/ml) and EFADs were detected 1O h post activation.
as §2
EFADs are produced by primary macrophages isolated from mouse bone marrow. […] Thus, C57BL/6 murine primary hematopoietic stem cells were differentiated to macrophages, activated with Kdo2 and IFNγ and analyzed for the formation of EFADs. Five out of the six EFAD species (EFAD-I, 2, -3, -5 and -6) were observed which co-eluted with those produced by RAW 264.7 cells and with the available standards.

Compound	p65 nuclear translocation and DNA binding, Stat1 phosphorylation [1]	iNOS induction and accumulation of nitrite in the cell media [2]	EFAD level +Celecoxib (↓COX) ([3]; RAW264.7 activated with Kdo2 and IFNγ, 20 h post activation)	EFAD level +Aspirin (↓COX) ([3]; RAW264.7 activated with Kdo2 and IFNγ, ASA 200 μM, 20 h post activation)	EFAD level +ETYA (↓COX) ([3]; RAW264.7 activated with Kdo2 and IFNγ, ETYA 25 μM, 20 h post activation)	EFAD level +MAFP (↓PLA2) ([3]; RAW264.7 activated with Kdo2 and IFNγ, MAFP 25 μM, 20 h post activation)	EFAD level +Diclofenac (↓COX) ([3]; RAW264.7 activated with Kdo2 and IFNγ, diclofenac 1 μM, 20 h post activation)	EFAD level +Genisteine ([3]; RAW264.7 activated with Kdo2 and IFNγ, genistein 25 μM, 20 h post activation)	EFAD level +Ibuprofen (↓COX) ([3]; RAW264.7 activated with Kdo2 and IFNγ, ibuprofen 100 μM, 20 h post activation)	EFAD level +Indomethacin (↓COX) ([3]; RAW264.7 activated with Kdo2 and IFNγ, indomethacin 25 μM, 20 h post activation)	adduct formation with GAPDH residues [4]	iNOS induction and accumulation of nitrite in the cell media [5]	rate and extent of formation of OH-DPA [6]	increase of EFAD formation ([3]; ASA 200 μM, all EFADs except EFAD-4 and EFAD-6)	extent of EFAD formation with ASA [7]
CCC=CCC=CC=CC(=O)CC=CCC=CCCCCCC(=O)O (mixture of isomers) [EFAD-2]	did not affect	strongly and dose-dependently repressed	↓	↑	↓	↓	↓	↓	↓	↓	readily formed adducts with Cys244, Cys149, His 163 and His328	strongly and dose-dependently repressed			
CC(=O)Oc1ccccc1C(=O)O [ASA, acetyl salicylic acid]													increased the rate and extent of formation	about 2.5 fold	increased about two to three fold
